Counter-ions that a name gives are not always drawn.
Legend:
algae = assay: Efficacy against algal growth on painted plaster surface (BBA MOAT 33); assay type: cell-based; conditions: 0.5% in paint; for MEAN ALGAL GROWTH RATING 28 days / MEAN ALGAL GROWTH RATING 56 days / % Improved after 56 days (algal growth): painted plaster; for MEAN ALGAL GROWTH RATING 28 days / MEAN ALGAL GROWTH RATING 56 days: leached 72 hours, mean of ratings 0-5; for MEAN ALGAL GROWTH RATING 28 days: 28 days after inoculation; for MEAN ALGAL GROWTH RATING 56 days: 56 days after inoculation; for % Improved after 56 days (algal growth): versus unpreserved paint
Description: (§1) Testing was performed according to the BS3900 G6 and BBA MOAT 33 methods for evaluation versus fungi and algae, respectively. The methods involve painting a substrate panel with the coating and leaching under running water for 72 hours. The substrates are incubated for 56 days after being inoculated with fungi or algae. Performance is judged by comparing with suitable control samples ie without biocide, a positive control and for fungi with substrate panels that have not been leached.
(§2) Performance rating on painted test substrates (Score of 0, 1 and 2 is considered as a pass) • 0=no growth • 1=trace of growth • 2=growth on 1-10% of test face • 3=growth on 10-30% of test face • 4=growth on 30-70% of test face
(§3) 5=growth on 70-100% of test face.

fungi [1] = assay: Efficacy against fungal growth on painted wooden surface (BS3900 G6); assay type: cell-based; conditions: 0.5% in paint
Description: as §1, §2, §3

Candida albicans = assay: Intrinsic activity, microtitre plate method, CA; assay type: cell-based; set-up: key: rating 0 = no activity to 5 = biostatic, may be biocide
Description: (§4) The chemistries were tested for their activity against a range of organisms via a microtitre plate method. The test organisms were: • ML—Micrococcus luteus • SA—Staphylococcus aureus • EC—Escherichia coli • PA—Pseudomonas aeruginosa • CF—Citrobacter freundii • PM—Proteus mirabilis • CA—Candida albicans • SC—Saccharomyces cerevisiae • AN—Aspergillus niger • PF—Penicillium funiculosum • AA—Alternaria alternata
(§5) Using the following rating scale: • 0=no activity • 1=minimal inhibition • 2=inhibition • 3=clear inhibition • 4=clear inhibition biostatic, may be biocide activity • 5=biostatic, may be biocide activity
(§6) Readings of 4 and possibly 3 were considered to be valid for biocidal applications.

Escherichia coli = assay: Intrinsic activity, microtitre plate method, EC; assay type: cell-based; set-up: key: rating 0 = no activity to 5 = biostatic, may be biocide
Description: as §4, §5, §6

Alternaria alternata = assay: Intrinsic activity, microtitre plate method, AA; assay type: cell-based; set-up: key: rating 0 = no activity to 5 = biostatic, may be biocide
Description: as §4, §5, §6

Citrobacter freundii = assay: Intrinsic activity, microtitre plate method, CF; assay type: cell-based; set-up: key: rating 0 = no activity to 5 = biostatic, may be biocide
Description: as §4, §5, §6

Micrococcus luteus = assay: Intrinsic activity, microtitre plate method, ML; assay type: cell-based; set-up: key: rating 0 = no activity to 5 = biostatic, may be biocide
Description: as §4, §5, §6

Saccharomyces cerevisiae = assay: Intrinsic activity, microtitre plate method, SC; assay type: cell-based; set-up: key: rating 0 = no activity to 5 = biostatic, may be biocide
Description: as §4, §5, §6

Bacteria = assay: Intrinsic activity, microtitre plate method, mean score over bacteria; assay type: cell-based, ML, SA, EC, PA, CF, PM; conditions: performance against organisms/no of organisms, 0 to <3 poor, >3 inhibition, >4 biostasis, biocidal activity
Description: as §4, §5, §6

Aspergillus niger = assay: Intrinsic activity, microtitre plate method, AN; assay type: cell-based; set-up: key: rating 0 = no activity to 5 = biostatic, may be biocide
Description: as §4, §5, §6

Penicillium funiculosum = assay: Intrinsic activity, microtitre plate method, PF; assay type: cell-based; set-up: key: rating 0 = no activity to 5 = biostatic, may be biocide
Description: as §4, §5, §6

test bacteria and fungi = assay: Intrinsic activity against bacteria and fungi, microtitre plate method, summary in words; assay type: cell-based; conditions: for Activity against the test bacteria and fungi: 1000 and 500 ppm a.i.; for Spectrum of activity: at both concentrations (1000 and 500 ppm a.i.)
Description: as §4, §5, §6

Fungi [2] = assay: Intrinsic activity, microtitre plate method, mean score over fungi; assay type: cell-based, CA, SC, AN, PF, AA; conditions: performance against organisms/no of organisms, 0 to <3 poor, >3 inhibition, >4 biostasis, biocidal activity
Description: as §4, §5, §6

Staphylococcus aureus = assay: Intrinsic activity, microtitre plate method, SA; assay type: cell-based; set-up: key: 0 = no activity to 5 = biostatic, may be biocide activity
Description: as §4, §5, §6

Proteus mirabilis = assay: Intrinsic activity, microtitre plate method, PM; assay type: cell-based; set-up: key: rating 0 = no activity to 5 = biostatic, may be biocide
Description: as §4, §5, §6

Pseudomonas aeruginosa = assay: Intrinsic activity, microtitre plate method, PA; assay type: cell-based; set-up: key: rating 0 = no activity to 5 = biostatic, may be biocide
Description: as §4, §5, §6

fungi [3] = assay: Efficacy against fungal growth on painted plaster surface (BS3900 G6); assay type: cell-based; conditions: 0.5% in paint
Description: as §1, with “The substrates are incubated for 56 days after being inoculated with fungi or algae.” left out
as §2, §3

[4] = constant running water for 72 hours, 28 days, mean of ratings 0-5
[5] = constant running water for 72 hours, 56 days, mean of ratings 0-5
[6] = leached 72 hours, versus unpreserved paint
[7] = no leaching with water, 28 days, mean of ratings 0-5
[8] = no leaching with water, 56 days, mean of ratings 0-5

Row | Compound | CA rating (Candida albicans; 500 ppm a.i.) | CA rating (Candida albicans; 1000 ppm a.i.) | EC rating (Escherichia coli; 500 ppm a.i.) | EC rating (Escherichia coli; 1000 ppm a.i.) | AA rating (Alternaria alternata; 500 ppm a.i.) | AA rating (Alternaria alternata; 1000 ppm a.i.) | CF rating (Citrobacter freundii; 500 ppm a.i.) | CF rating (Citrobacter freundii; 1000 ppm a.i.) | ML rating (Micrococcus luteus; 500 ppm a.i.) | ML rating (Micrococcus luteus; 1000 ppm a.i.) | SC rating (Saccharomyces cerevisiae; 500 ppm a.i.) | SC rating (Saccharomyces cerevisiae; 1000 ppm a.i.) | Bacteria Mean Score (Bacteria; 500 ppm a.i.) | Bacteria Mean Score (Bacteria; 1000 ppm a.i.) | AN rating (Aspergillus niger; 500 ppm a.i.) | AN rating (Aspergillus niger; 1000 ppm a.i.) | PF rating (Penicillium funiculosum; 500 ppm a.i.) | PF rating (Penicillium funiculosum; 1000 ppm a.i.) | Fungi Mean Score (Fungi [2]; 500 ppm a.i.) | Fungi Mean Score (Fungi [2]; 1000 ppm a.i.) | further results
1 | CCOCn1c(-c2ccc(Cl)cc2)c(C#N)c(Br)c1C(F)(F)F [Chlorfenapyr, 4-Brom-2-(p-chlorphenyl)-1-(ethoxymethyl)-5-(tri-fluormethyl)-pyrrole-3-carbonitril] |  |  |  |  |  |  |  |  |  |  |  |  |  |  |  |  |  |  |  |  | MEAN ALGAL GROWTH RATING 28 days (algae): 3 (3=growth on 10-30% of test face); MEAN ALGAL GROWTH RATING 56 days (algae): 3.5; % Improved after 56 days (algal growth) (algae): 12.5%; Improvement against algal growth on the plaster surface (algae): exhibited an improvement; Improvement against fungal growth on the wood surface (fungi [1]): exhibited an improvement; MEAN FUNGAL GROWTH RATING - WOOD SUBSTRATE 28 days leached (fungi [1]; [4]): 3 (3=growth on 10-30% of test face); MEAN FUNGAL GROWTH RATING - WOOD SUBSTRATE 56 days leached (fungi [1]; [5]): 3.5; % Improved After 56 days leached (fungal, wood) (fungi [1]; [6]): 12.5%; MEAN FUNGAL GROWTH RATING - WOOD SUBSTRATE 28 days as applied (fungi [1]; [7]): 5 (5=growth on 70-100% of test face); MEAN FUNGAL GROWTH RATING - WOOD SUBSTRATE 56 days as applied (fungi [1]; [8]): 5 (5=growth on 70-100% of test face)
2 | CC(Oc1ccc(Cl)cc1Cl)C(=O)O (stereo not shown) [Dichlorprop, 2,4-Dichlorophenoxy-propionic acid] | 2 | 5 | 3 | 5 | 5 | 5 | 3 | 5 | 5 | 5 | 1 | 5 | 3.3 | 5.0 | 5 | 5 | 5 | 5 | 3.6 | 5.0 | Activity against the test bacteria and fungi (test bacteria and fungi): good activity; SA rating (Staphylococcus aureus; 500 ppm a.i.): 3; SA rating (Staphylococcus aureus; 1000 ppm a.i.): 5; PM rating (Proteus mirabilis; 500 ppm a.i.): 3; PM rating (Proteus mirabilis; 1000 ppm a.i.): 5; PA rating (Pseudomonas aeruginosa; 500 ppm a.i.): 3; PA rating (Pseudomonas aeruginosa; 1000 ppm a.i.): 5
3 | CCCCCCCCCCCCNC(=N)N [Dodine, 1-dodecylguanidinium hydrochloride or—acetate] | 5 | 5 | 5 | 5 | 5 | 5 | 5 | 5 | 5 | 5 | 5 | 5 | 4.3 | 4.7 | 5 | 5 | 5 | 5 | 5.0 | 5.0 | Activity against the test bacteria and fungi (test bacteria and fungi): good activity; SA rating (Staphylococcus aureus; 500 ppm a.i.): 5; SA rating (Staphylococcus aureus; 1000 ppm a.i.): 5; PM rating (Proteus mirabilis; 500 ppm a.i.): 5; PM rating (Proteus mirabilis; 1000 ppm a.i.): 5; PA rating (Pseudomonas aeruginosa; 500 ppm a.i.): 1; PA rating (Pseudomonas aeruginosa; 1000 ppm a.i.): 3
4 | Fc1ccc([C@@]2(Cn3cncn3)O[C@H]2c2ccccc2Cl)cc1 [Epoxiconazole, cis-3-(2-Chlorphenyl)-2-(4-fluorphenyl)-2-(triazol-1-ylmethyl)-oxiran] | 5 | 5 | 0 | 0 | 5 | 5 | 0 | 0 | 0 | 0 | 5 | 5 | 0.0 | 0.0 | 5 | 5 | 3 | 3 | 4.6 | 4.6 | MEAN ALGAL GROWTH RATING 28 days (algae): 2.5; MEAN ALGAL GROWTH RATING 56 days (algae): 2.5; % Improved after 56 days (algal growth) (algae): 37.5%; Improvement against algal growth on the plaster surface (algae): exhibited an improvement; Spectrum of activity (test bacteria and fungi): only display antifungal activity; Improvement against fungal growth on the plaster surface (fungi [3]; as applied or after leaching): exhibited an improvement; MEAN FUNGAL GROWTH RATING - PLASTER SUBSTRATE 28 days leached (fungi [3]; [4]): 1.5; MEAN FUNGAL GROWTH RATING - PLASTER SUBSTRATE 56 days leached (fungi [3]; [5]): 2.5; % Improved After 56 days leached (fungal, plaster) (fungi [3]; [6]): 29%; MEAN FUNGAL GROWTH RATING - PLASTER SUBSTRATE 28 days as applied (fungi [3]; [7]): 3.5; MEAN FUNGAL GROWTH RATING - PLASTER SUBSTRATE 56 days as applied (fungi [3]; [8]): 3.5; % Improved After 56 days as applied (fungal, plaster) (fungi [3]; no leaching, versus unpreserved paint): 30%; SA rating (Staphylococcus aureus; 500 ppm a.i.): 0; SA rating (Staphylococcus aureus; 1000 ppm a.i.): 0; PM rating (Proteus mirabilis; 500 ppm a.i.): 0; PM rating (Proteus mirabilis; 1000 ppm a.i.): 0; Improvement against fungal growth on the wood surface (fungi [1]): only showed marginal improvement; PA rating (Pseudomonas aeruginosa; 500 ppm a.i.): 0; PA rating (Pseudomonas aeruginosa; 1000 ppm a.i.): 0
5 | (1RS, 5RS;1RS, 5SR)-5- (4-chlorobenzyl)-2,2-di- methyl-1-(1H-1,2,4-tri- azol-1-ylmethyl)cyclo- pentanol [Metconazole] | 3 | 3 | 0 | 0 | 5 | 5 | 0 | 0 | 2 | 3 | 3 | 3 | 0.5 | 0.7 | 5 | 5 | 5 | 5 | 4.2 | 4.2 | Spectrum of activity (test bacteria and fungi): only display antifungal activity; SA rating (Staphylococcus aureus; 500 ppm a.i.): 1; SA rating (Staphylococcus aureus; 1000 ppm a.i.): 1; PM rating (Proteus mirabilis; 500 ppm a.i.): 0; PM rating (Proteus mirabilis; 1000 ppm a.i.): 0; PA rating (Pseudomonas aeruginosa; 500 ppm a.i.): 0; PA rating (Pseudomonas aeruginosa; 1000 ppm a.i.): 0
